Source: patent publication US20250302788A1, “COMPOSITION COMPRISING CREATINE FOR USE IN THE TREATMENT OF POST VIRAL FATIGUE SYNDROME” (Alzchem Trostberg GmbH, priority 2022, published 2025)
Read-outs that look alike come from different tables or passages of the source.

How the values were obtained:
[1] = test system: patients suffering under Post-COVID; assay: Reported side effects, Example 1; assay type: in vivo, human; settings: 4 g creatine monohydrate/day, up to 6 months
Description: The number of participants who were randomly assigned, received intended treatment, and were analyzed for the primary outcome at this time was twelve in total, six in experimental group and six in control group.

[2] = test system: patients suffering under Post-COVID; assay: VAS scale of COVID-19-related signs and symptoms, Example 1; assay type: in vivo, human; settings: 4 g/day
Description: (§1) The patient-reported outcomes for COVID-19-related signs and symptoms (e.g. headache, concentrating difficulties, anosmia, ageusia) were evaluated with VAS scale. Fatigue, comprising the conditions of the group general fatigue, physical fatigue, metal fatigue, reduced activity, and reduced motivation, was evaluated with a multidimensional fatigue inventory test (MFI-20 test, Smets E. M. et al., J. Psychosom. Res. 1995, 39 (3), 315).

PCFS patients [3] = assay type: in vivo, human
[4] = test system: patients suffering under Post-COVID; assay: Incremental treadmill test until exhaustion, Example 1; assay type: in vivo, human; settings: for Time to exhaustion: 4 g/day
Description: In addition the time to exhaustion of the patients was evaluated by an incremental test until exhaustion on a motorized treadmill. Speed and gradient of the treadmill are increased every third minute, starting at 2.7 km/h (1.7 miles per hour) at a 10% gradient and rising at stage 7 to 9.7 km/h (6 miles per hour) at 22% gradient (Will P. M. and Walter J. D., Am Heart. J., 1999 December, 138, 1033).

PCFS patients [5] = settings: in vivo
[6] = test system: patients suffering under Post-COVID; assay: MFI-20 multidimensional fatigue inventory test, Example 1; assay type: in vivo, human; settings: 4 g/day
Description: as §1

[7] = both, human, in vivo
[8] = human, in vivo
PCFS patients [9] = assay: Incremental treadmill test until exhaustion, Example 3; assay type: in vivo, human
Description: In addition the time to exhaustion of the patients was evaluated by an incremental test until exhaustion on a motorized treadmill.

[10] = normal healthy population; cited from earlier work
PCFS patients [11] = assay: MFI-20 fatigue test, Example 3; assay type: in vivo, human
[12] = 8 weeks vs baseline, listed as EXP 2, monohydrate
[13] = 8 weeks vs baseline, monohydrate

CN(CC(=O)O)C(=N)N.O [Creatine, creatine monohydrate]
Side effects [1]: no major side effects | Ageusia (VAS scale) ([2]; 3 months): 0.2 | Anosmia (VAS scale) ([2]; 3 months): 1.0 | Concentrating difficulties (VAS scale) ([2]; 3 months): 1.5 | Headache (VAS scale) ([2]; 3 months): 0.8 | Ageusia (VAS scale) ([2]; 6 months): 0.0 | Anosmia (VAS scale) ([2]; 6 months): 0.8 | Concentrating difficulties (VAS scale) ([2]; 6 months): 0.0 | Headache (VAS scale) ([2]; 6 months): 0.5 | Ageusia (VAS scale) ([2]; Baseline): 5.0 | Anosmia (VAS scale) ([2]; Baseline): 5.0 | Concentrating difficulties (VAS scale) ([2]; Baseline): 4.0 | Headache (VAS scale) ([2]; Baseline): 3.8 | Ageusia (VAS scale) (PCFS patients [3]; 8 weeks): 0.2 | Anosmia (VAS scale) (PCFS patients [3]; 8 weeks): 0.0 | Concentrating difficulties (VAS scale) (PCFS patients [3]; 8 weeks): 2.2 | Headache (VAS scale) (PCFS patients [3]; 8 weeks): 0.8 | Malaise (VAS scale) (PCFS patients [3]; 8 weeks): 1.0 | Cohen's effect (d), Ageusia (AGE) (PCFS patients [3]; 8 weeks vs baseline): 0.34 | Cohen's effect (d), Breathing Difficulties (BRD) (PCFS patients [3]; 8 weeks vs baseline): 0.96 | Cohen's effect (d), Headache (HAD) (PCFS patients [3]; 8 weeks vs baseline): 0.93 | Cohen's effect (d), Difficulties concentrating (DCN) (PCFS patients [3]; [12]): 1.37 | Cohen's effect (d), Malaise (MAL) (PCFS patients [3]; [12]): 1.81 | Cohen's effect (d), Difficulties concentrating (DCN) (PCFS patients [3]; [13]): > 0.80 | Cohen's effect (d), Malaise (MAL) (PCFS patients [3]; [13]): > 0.80 | Ageusia (VAS scale) (PCFS patients [3]; Baseline): 0.0 | Anosmia (VAS scale) (PCFS patients [3]; Baseline): 0.0 | Concentrating difficulties (VAS scale) (PCFS patients [3]; Baseline): 4.2 | Headache (VAS scale) (PCFS patients [3]; Baseline): 3.2 | Malaise (VAS scale) (PCFS patients [3]; Baseline): 4.2 | Time to exhaustion ([4]; 3-months): 922 s | Time to exhaustion ([4]; 6-months): 959 s | Time to exhaustion ([4]; Baseline): 894 s | Stage achieved in the treadmill test ([4]; placebo group remains at stage 5): stage 6 | Increase of time to exhaustion ([4]; vs baseline, compared to 2.1% after placebo intake): 7.3% | Side effects / tolerability (PCFS patients [5]): well-tolerated | General fatigue (MFI-20 score) ([6]; 3 months): 11.3 | Mental fatigue (MFI-20 score) ([6]; 3 months): 11.2 | Physical fatigue (MFI-20 score) ([6]; 3 months): 12.7 | Reduced activity (MFI-20 score) ([6]; 3 months): 12.0 | Reduced motivation (MFI-20 score) ([6]; 3 months): 13.0 | General fatigue (MFI-20 score) ([6]; 6 months): 12.7 | Mental fatigue (MFI-20 score) ([6]; 6 months): 10.5 | Physical fatigue (MFI-20 score) ([6]; 6 months): 13.2 | Reduced activity (MFI-20 score) ([6]; 6 months): 12.5 | Reduced motivation (MFI-20 score) ([6]; 6 months): 12.5 | General fatigue (MFI-20 score) ([6]; Baseline): 12.0 | Mental fatigue (MFI-20 score) ([6]; Baseline): 12.3 | Physical fatigue (MFI-20 score) ([6]; Baseline): 13.5 | Reduced activity (MFI-20 score) ([6]; Baseline): 11.5 | Reduced motivation (MFI-20 score) ([6]; Baseline): 13.0 | Total creatine, Left frontal grey matter [7]: 6.6 ± 0.6 mM | Total creatine, Left frontal white matter [7]: 6.7 ± 0.7 mM | Total creatine, Left mesial grey matter [7]: 8.1 ± 1.3 mM | Total creatine, Left paracentral grey matter [7]: 6.8 ± 0.8 mM | Total creatine, Left parietal white matter [7]: 7.5 ± 1.6 mM | Total creatine, Left precentral white matter [7]: 6.4 ± 1.0 mM | Total creatine, Right frontal grey matter [7]: 6.6 ± 1.1 mM | Total creatine, Right frontal white matter [7]: 6.7 ± 1.0 mM | Total creatine, Right mesial grey matter [7]: 8.4 ± 1.4 mM | Total creatine, Right paracentral grey matter [7]: 7.2 ± 0.8 mM | Total creatine, Right parietal white matter [7]: 7.6 ± 1.9 mM | Total creatine, Right precentral white matter [7]: 6.8 ± 0.9 mM | Total creatine, Thalamus [7]: 5.1 ± 1.0 mM | Total creatine, Vastus medialis muscle [7]: 29.0 ± 5.6 mM | Cohen's effect size (d) for creatine increase, parietal mesial grey matter ([7]; 8 weeks): 0.65 | Total creatine, Left frontal grey matter ([7]; 8 weeks): 6.5 ± 0.5 mM | Total creatine, Left frontal white matter ([7]; 8 weeks): 6.8 ± 0.9 mM | Total creatine, Left mesial grey matter ([7]; 8 weeks): 8.6 ± 1.1 mM | Total creatine, Left paracentral grey matter ([7]; 8 weeks): 6.9 ± 0.9 mM | Total creatine, Left parietal white matter ([7]; 8 weeks): 7.8 ± 1.3 mM | Total creatine, Left precentral white matter ([7]; 8 weeks): 6.7 ± 0.8 mM | Total creatine, Right frontal grey matter ([7]; 8 weeks): 6.7 ± 1.0 mM | Total creatine, Right frontal white matter ([7]; 8 weeks): 7.0 ± 1.1 mM | Total creatine, Right mesial grey matter ([7]; 8 weeks): 9.2 ± 1.0 mM | Total creatine, Right paracentral grey matter ([7]; 8 weeks): 7.6 ± 1.6 mM | Total creatine, Right parietal white matter ([7]; 8 weeks): 7.7 ± 1.9 mM | Total creatine, Right precentral white matter ([7]; 8 weeks): 7.4 ± 1.1 mM | Total creatine, Thalamus ([7]; 8 weeks): 5.3 ± 0.9 mM | Total creatine, Vastus medialis muscle ([7]; 8 weeks): 30.4 ± 5.2 mM | Total creatine, Vastus medialis muscle ([8]; 0 months): 28.2 ± 3.0 mM | Cohen's effect size (d), brain creatine level, left parietal white matter ([8]; 3 months): 0.92 | Cohen's effect size (d), brain creatine level, parietal white matter ([8]; 3 months): 1.99 | Cohen's effect size (d), brain creatine level, right frontal white matter ([8]; 3 months): 1.25 | Cohen's effect size (d), brain creatine level, right paracentral grey matter ([8]; 3 months): 0.88 | Cohen's effect size (d), brain creatine level, right parietal messial grey matter ([8]; 3 months): 1.17 | Cohen's effect size (d), brain creatine level, thalamus ([8]; 3 months): 0.82 | Total creatine, Vastus medialis muscle ([8]; 3 months): 30.0 ± 4.2 mM | Cohen's effect size (d), brain creatine level, left parietal messial grey matter ([8]; 6 months): 0.84 | Cohen's effect size (d), brain creatine level, left parietal white matter ([8]; 6 months): 1.17 | Cohen's effect size (d), brain creatine level, parietal white matter ([8]; 6 months): 1.74 | Cohen's effect size (d), brain creatine level, right frontal white matter ([8]; 6 months): 1.32 | Cohen's effect size (d), brain creatine level, right parietal messial grey matter ([8]; 6 months): 1.06 | Total creatine, Vastus medialis muscle ([8]; 6 months): 30.6 ± 3.4 mM | Time to exhaustion (PCFS patients [9]; 8 weeks): 844 s | Time to exhaustion (PCFS patients [9]; Baseline): 824 s | Change of time to exhaustion (PCFS patients [9]; post-administration (8 weeks) vs baseline): 20 s | Increase of creatine in the brain after creatine supplementation [10]: ≤ 5% | General fatigue (MFI-20 score) (PCFS patients [11]; 8 weeks): 12.0 | Mental fatigue (MFI-20 score) (PCFS patients [11]; 8 weeks): 12.2 | Physical fatigue (MFI-20 score) (PCFS patients [11]; 8 weeks): 11.4 | Reduced activity (MFI-20 score) (PCFS patients [11]; 8 weeks): 12.0 | Reduced motivation (MFI-20 score) (PCFS patients [11]; 8 weeks): 10.3 | Cohen's effect (d), General Fatigue (PCFS patients [11]; 8 weeks vs baseline): 0.44 | Cohen's effect (d), Mental Fatigue (MF) (PCFS patients [11]; 8 weeks vs baseline): 1.32 | Cohen's effect (d), Physical Fatigue (PF) (PCFS patients [11]; 8 weeks vs baseline): 0.83 | Cohen's effect (d), Reduced Motivation (RM) (PCFS patients [11]; 8 weeks vs baseline): 1.07 | Cohen's effect (d), Reduced activity (RA) (PCFS patients [11]; 8 weeks vs baseline): 1.52 | General fatigue (MFI-20 score) (PCFS patients [11]; Baseline): 12.6 | Mental fatigue (MFI-20 score) (PCFS patients [11]; Baseline): 13.4 | Physical fatigue (MFI-20 score) (PCFS patients [11]; Baseline): 12.2 | Reduced activity (MFI-20 score) (PCFS patients [11]; Baseline): 13.6 | Reduced motivation (MFI-20 score) (PCFS patients [11]; Baseline): 11.6
